Columns and labels:
human EZH2 3'-UTR = assay: EZH2 3'-UTR luciferase reporter assay; type: cell-based; conditions: Du145 cells
Procedure: FIG. 6A: Putative binding site of miR-141 in EZH2 3′-UTR. […] FIG. 6C is a qPCR analysis of EZH2 mRNA levels in CD44^+ PCa cells. Bars, mean±SD. *P<0.05; **P<0.01. […] Bars, mean±SD. **P<0.01. […] Western blotting was performed in PC3 and Du145 cells transfected with NC (60 nM) or miR-141 (30 or 60 nM) oligos (72 h). Relative protein levels were measured by densitometry and normalized to GAPDH levels (indicated below). […] Du145 cells plated one day before were treated with 1, 2, and 5 μM of DZNep for 96 h and then cells were harvested for invasion assays. **P<0.01. Inset, WB showing reduced EZH2 proteins by DZNep. […] Du145 cells were transfected with 10 nM scramble siRNA (siCon) or EZH2-targeting siRNAs (siEZH2) or siEZH2 plus anti-miR-141 (30 nM). 48 h later, cells were harvested for invasion assays. Bars, mean±SD. **P<0.01. […]
The human CD44 3′-UTR was amplified from Du145 genomic DNA using primers 5′-[…]-3′ (SEQ ID NO: 2) and 5′-[…]-3′ (SEQ ID NO: 3), as previously described (13). […] The luciferase activities were detected using Duo-luciferase reporter assay system (Promega). Human RAC1, CDC42, CDC42EP3, and ARPC5 3′-UTR luciferase reporter constructs were obtained from SwitchGear Genomics (Menlo Park, Calif.) and luciferase activities were measured per the manufacturer's instructions using LightSwitch luciferase assay kit.

prostate cancer cells = assay: Cell death and senescence; type: cell-based; conditions: miR-141 expression
SUZ12 = SUZ12 protein level, Western blotting; type: cell-based, human; conditions: PC3 and Du145, 30 or 60 nM, 72 h
Procedure: FIG. 6A: Putative binding site of miR-141 in EZH2 3′-UTR. […] FIG. 6C is a qPCR analysis of EZH2 mRNA levels in CD44^+ PCa cells. Bars, mean±SD. *P<0.05; **P<0.01. […] Bars, mean±SD. **P<0.01. […] Western blotting was performed in PC3 and Du145 cells transfected with NC (60 nM) or miR-141 (30 or 60 nM) oligos (72 h). Relative protein levels were measured by densitometry and normalized to GAPDH levels (indicated below). […] Du145 cells plated one day before were treated with 1, 2, and 5 μM of DZNep for 96 h and then cells were harvested for invasion assays. **P<0.01. Inset, WB showing reduced EZH2 proteins by DZNep. […] Du145 cells were transfected with 10 nM scramble siRNA (siCon) or EZH2-targeting siRNAs (siEZH2) or siEZH2 plus anti-miR-141 (30 nM). 48 h later, cells were harvested for invasion assays. Bars, mean±SD. **P<0.01. […] Du145 cells were co-transfected with 30 nM NC or miR-141 oligos together with empty vector or pCMV-EZH2 construct. After 48 h, cells were harvested for invasion assay. Bars, mean±SD. **P<0.01.

[1] = system: E-Cadherin and ZEB-1 in PC3 and Du145 cells; assay: Western blotting of E-Cadherin and ZEB-1; type: cell-based, human; conditions: bulk Du145 and PC3 cells; 30 or 60 nM, 48 h
Procedure: FIGS. 3A-3J show partial suppression of epithelial to mesenchymal transition by miR-141 and CD44 as a direct target of miR-141. FIGS. 3A-3B show qPCR analysis of epithelial to mesenchymal transition markers in bulk (FIG. 3A) or CD44^+ (FIG. 3B) Du145 cells transfected with the miR-141 oligos (30 nM; 48 h). Results were presented as the relative expression levels over the cells transfected with the NC oligos. […] GAPDH was used as control and the relative protein levels after normalizing to GAPDH and NC controls were indicated below each lane. […] Shown below is the actual sequence in the region with the mutated miR-141 binding sequence indicated in grey (below). […] Shown are representative images. […] Du145 cells were co-transfected with NC or miR-141 oligos (30 nM) together with pBabe empty vector or pBabe-CD44 vector. After 48 h, cells were harvested for invasion assays. Bars, mean±SD. *, P<0.05; **, P<0.01.

[2] = system: cultured as well as primary patient human prostate cancer cells; assay: Matrigel invasion assay; type: cell-based
Procedure: For Boyden Chamber invasion assays, Biocoat Matrigel Invasion Chamber (BD, Franklin Lakes, N.J.) was employed following the manufacturer's instructions. Briefly, 100,000-200,000 of prostate cancer cells after transfection with […]/miR-141 oligos or infection with miR-141 over-expressing lentivirus were seeded into each well. Medium with 20% fetal bovine serum was used in the lower chamber as chemo-attractant. After 20 h, cells were fixed and stained using HEMA stain. Representative images were taken for each membrane and cells were counted. Migration assays were simultaneously performed in control wells using identical protocol with Transwell (Costar; […]) without Matrigel. In some experiments, Du145 cells were plated one day before and treated with 1, 2, and 5 μM of DZNep (3-Deazaneplanocin A) for 96 h after which cells were harvested and used in invasion assays and Western blot.

PPC-1 cells = assay: Clonal and sphere formation assays; type: cell-based, human
Procedure: For clonal assays, cultured prostate cancer cells or human prostate cancer cells freshly purified from patient primary tumors were plated at a clonal density (i.e., 100 cells/well) in a 6-well plate. The number of holoclones (33) was counted several days later. For Matrigel-based sphere formation assays, cells in medium were plated (generally 1,000 cells/well) in Matrigel at 1:1 ratio in a total of 100 μl in 96-well plates. Spheres were enumerated 1-2 weeks after plating. For floating sphere formation assays, cells were plated in serum-free epithelial basal medium (PrEBM) supplemented with B27 (Invitrogen), and 20 ng/ml EGF and bFGF in ultra-low attachment (ULA) plate. Floating spheres that arose in 1-2 weeks were counted. For all these experiments, a minimum of triplicate wells was run for each condition and repeat experiments were performed when necessary and feasible.

prostate cancer tumors = assay: Ki-67+ cells in miR-141-overexpressing tumors; type: in vivo

Which results are given for “miR-141: miR-141 mirVana mimics (Life Technologies); microRNA-141 oligonucleotide may have SEQ ID NO: 1; in some experiments over-expressed by lentiviral vectors (UAACACUGUCUGGUAAAGAUGG; listed as RNA, further chemistry not given here) [miR-141 mirVana mimics (Life Technologies); in some experiments over-expressed by lentiviral vectors]”?
luciferase activity, WT EZH2 3'-UTR (human EZH2 3'-UTR): suppressed; luciferase activity, mutated EZH2 3'-UTR (human EZH2 3'-UTR): not; effects on cell death and senescence (prostate cancer cells): minimal effects; SUZ12 protein level (SUZ12): reduced; E-cadherin (CDH1) protein level [1]: increased; ZEB1 protein level [1]: reduced; invasive capabilities [2]: significantly inhibited; clonal expansion (PPC-1 cells): inhibited; sphere formation (PPC-1 cells): inhibited; Ki-67+ cells (prostate cancer tumors): reduced
